Data from PMC12494546, “Structural basis of heme scavenging by the ChtA and HtaA hemophores in Corynebacterium diphtheriae” (The Journal of Biological Chemistry, 2025).

Experiments:
HtaB^CR = biological target: T1, HtaB^CR (Corynebacterium diphtheriae, UniProt Q6NIY7); experiment: Hemin partitioning between pairs of CR domains at equilibrium measured by native nano-ESI-MS in 50 mM ammonium acetate pH 6.9 at 24 °C, with Krel converted to KD using the ITC KD of ChtA^CR as reference.; assay type: binding; settings: read-out: estimated KD values for hemin
T1 construct: gene DIP0629; CR domain, HtaB residues 30-273; N-terminal SUMO/6xHis tag removed by ULP1
Description: (§1) The C. diphtheriae hemin-uptake system contains six CR domains that are located at distinct sites outside the cell (Fig. 1). […] Together, they represent nearly the full complement of C. diphtheriae’s CR domains (only the domains from ChtB and ChtC are missing, but they are expected to have similar binding properties as their paralogs, HtaB and ChtA, respectively). […] Similar measurements were made for the following protein pairs: HtaA^CR2/HtaB^CR, HtaA^CR1/HtaB^CR, HtaA^CR2/HtaA^CR1, ChtA^CR/HtaA^CR2, and ChtA^CR/HtaB^CR (Table S4).
(§2) nESI-MS was used for ligand (heme)-competition experiments between CR domain pairs to determine their relative heme dissociation constant Krelative (Krel) ([37], [56]). In this approach, two different CR domains (e.g. a >90% heme-loaded “heme donor” and a <10% heme-loaded “heme acceptor” CR domain) are mixed and allowed to come to equilibrium (>6 h, 24 °C). The resulting mixture is then analyzed by nESI-MS, where the apo- and holo-abundance of each CR domain is determined from the sum peak intensity from each of their charge states as described previously ([37]). The relative affinity between the CR pair tested can be determined by their nESI-MS abundances according to Equation 1, which is derived from the ratio of each CR’s KD for heme. Importantly, this analysis is independent of [heme] and Krel should be consistent across different concentrations of [heme donor] and [heme acceptor]; thus, we used at least three different holo-donor and apo-acceptor stoichiometry ratios to determine each Krel reported in Table S4.(eq. 1) KRelative=[CR^hemeacceptor][CR^hemedonor·heme]/[CR^hemedonor][CR^hemeacceptor·heme]=Ab(CR^hemeacceptor)Ab(CR^hemedonor·heme)/Ab(CR^hemedonor)Ab(CR^hemeacceptor·heme)
(§3) For nESI-MS heme-competition experiments, CR domains were first buffer-exchanged into 50 mM ammonium acetate (pH 6.9) using dialysis or gel filtration and protein concentration was determined by bicinchoninic acid assay or UV-visible absorbance at 280 nm. […]

HtaA^CR2 = biological target: T2, HtaA^CR2 (Corynebacterium diphtheriae, UniProt Q6NIZ1); experiment: as above; assay type: binding; settings: read-out: estimated KD values for hemin
T2 construct: gene DIP0625; C-terminal CR domain CR2, HtaA residues 344-506 (G344-G506); N-terminal SUMO/6xHis tag removed by ULP1
Description: as §1, §2, §3

HtaA^CR1 = biological target: T3, HtaA^CR1 (Corynebacterium diphtheriae, UniProt Q6NIZ1); experiment: as above; assay type: binding; settings: read-out: estimated KD values for hemin
T3 construct: gene DIP0625; N-terminal CR domain CR1, HtaA residues 36-221 (methods; S37-G214 in results); N-terminal SUMO/6xHis tag removed by ULP1
Description: as §1, §2, §3

ChtA^CR (WT) = biological target: T4, ChtA^CR (WT) (Corynebacterium diphtheriae, UniProt Q6NGJ3); experiment: Isothermal titration calorimetry with apo-protein injected into hemin chloride at 25 °C in 50 mM Tris-HCl pH 8.0, 200 mM NaCl, 5% DMSO, fitted to a one-site binding model.; settings: SEM, n = 3
T4 construct: gene DIP1520; CR domain, ChtA residues 112-291 (K112-G291); N-terminal SUMO/6xHis tag removed by ULP1; apo-form
Description: (§4) Isothermal titration calorimetry
(§5) Protein samples were equilibrated in titration buffer supplemented with 5% (v/v) DMSO. […] Binding isotherms were fit to a one-site binding model using the program ORIGIN ([91]).

Y178A = biological target: T5, Y178A (Corynebacterium diphtheriae, UniProt Q6NGJ3, Y178A); experiment: as above; settings: SEM, n = 3
T5 construct: gene DIP1520; CR domain, ChtA residues 112-291; N-terminal SUMO/6xHis tag removed by ULP1; apo-form
Description: as §4, §5

Y129A = biological target: T6, Y129A (Corynebacterium diphtheriae, UniProt Q6NGJ3, Y129A); experiment: as above; settings: n = 3
T6 construct: gene DIP1520; CR domain, ChtA residues 112-291; N-terminal SUMO/6xHis tag removed by ULP1; apo-form
Description: as §4, §5

K177G = biological target: T7, K177G (Corynebacterium diphtheriae, UniProt Q6NGJ3, K177G); experiment: as above; settings: SEM, n = 3
T7 construct: gene DIP1520; CR domain, ChtA residues 112-291; N-terminal SUMO/6xHis tag removed by ULP1; apo-form
Description: as §4, §5

K177G + Y178H = biological target: T8, K177G + Y178H (Corynebacterium diphtheriae, UniProt Q6NGJ3, K177G/Y178H); experiment: as above; settings: SEM, n = 3
T8 construct: gene DIP1520; CR domain, ChtA residues 112-291; N-terminal SUMO/6xHis tag removed by ULP1; apo-form
Description: as §4, §5

Y178H = biological target: T9, Y178H (Corynebacterium diphtheriae, UniProt Q6NGJ3, Y178H); experiment: as above; settings: SEM, n = 3
T9 construct: gene DIP1520; CR domain, ChtA residues 112-291; N-terminal SUMO/6xHis tag removed by ULP1; apo-form
Description: as §4, §5

T1 sequence (Q6NIY7 entry or part of it): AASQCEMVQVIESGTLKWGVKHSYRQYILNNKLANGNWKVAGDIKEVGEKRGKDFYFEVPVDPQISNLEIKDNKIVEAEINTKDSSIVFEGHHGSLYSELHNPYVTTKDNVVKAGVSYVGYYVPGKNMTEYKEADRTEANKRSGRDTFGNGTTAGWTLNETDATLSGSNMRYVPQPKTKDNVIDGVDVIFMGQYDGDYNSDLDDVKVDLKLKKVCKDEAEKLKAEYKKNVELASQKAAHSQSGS
T5 sequence (Q6NGJ3 112-291 Y178A): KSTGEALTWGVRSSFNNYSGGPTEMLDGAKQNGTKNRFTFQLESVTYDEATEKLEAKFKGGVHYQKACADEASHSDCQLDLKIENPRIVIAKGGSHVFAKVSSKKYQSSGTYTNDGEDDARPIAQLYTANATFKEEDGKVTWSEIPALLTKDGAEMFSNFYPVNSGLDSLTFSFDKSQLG
T4 sequence (Q6NGJ3 entry or part of it): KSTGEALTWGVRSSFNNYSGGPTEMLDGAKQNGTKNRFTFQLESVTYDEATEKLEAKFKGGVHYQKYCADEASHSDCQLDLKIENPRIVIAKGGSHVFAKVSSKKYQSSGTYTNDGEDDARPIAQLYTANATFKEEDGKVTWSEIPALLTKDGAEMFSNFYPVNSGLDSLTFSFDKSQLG
T7 sequence (Q6NGJ3 112-291 K177G): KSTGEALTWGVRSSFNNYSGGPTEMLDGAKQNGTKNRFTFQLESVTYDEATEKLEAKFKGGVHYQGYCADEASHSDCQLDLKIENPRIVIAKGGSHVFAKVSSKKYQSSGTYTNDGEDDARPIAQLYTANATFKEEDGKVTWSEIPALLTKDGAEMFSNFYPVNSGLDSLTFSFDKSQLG
T2 sequence (Q6NIZ1 entry or part of it): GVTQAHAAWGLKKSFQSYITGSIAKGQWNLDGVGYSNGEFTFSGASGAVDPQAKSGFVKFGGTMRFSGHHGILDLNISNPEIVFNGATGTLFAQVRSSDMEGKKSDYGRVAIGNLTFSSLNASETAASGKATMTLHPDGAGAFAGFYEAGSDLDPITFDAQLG
T3 sequence (Q6NIZ1 entry or part of it): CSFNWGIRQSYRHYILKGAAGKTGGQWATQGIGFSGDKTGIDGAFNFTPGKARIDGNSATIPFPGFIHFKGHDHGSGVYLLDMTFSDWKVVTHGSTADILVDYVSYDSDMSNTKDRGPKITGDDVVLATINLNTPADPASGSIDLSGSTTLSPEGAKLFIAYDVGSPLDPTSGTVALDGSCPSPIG

## C=CC1=C(C)c2cc3[nH]c(cc4nc(cc5[nH]c(cc1n2)c(C)c5CCC(=O)O)C(CCC(=O)O)=C4C)c(C)c3C=C.[Fe+3] [hemin, ferric heme (iron(III)-protoporphyrin IX; used as hemin chloride)]
HtaB^CR
  Kd: 5.4 nM
HtaA^CR2
  Kd: 0.85 nM
HtaA^CR1
  Kd: 1.1 nM
ChtA^CR (WT)
  Kd: 22.4 ± 5.3 nM
Y178A
  Kd: 46.6 ± 9.6 nM
Y129A
  Kd: > 500 nM
K177G
  Kd: 23.6 ± 0.8 nM
K177G + Y178H
  Kd: 27.1 ± 9 nM
Y178H
  Kd: 54.8 ± 1.9 nM
